Measurements taken from ChEMBL document CHEMBL2057064, “Activation of human RNase L by 2'- and 5'-O-methylphosphonate-modified oligoadenylates” (Bioorg Med Chem Lett, 2012).
Activity calls are given as the source filed them. The rule behind the calls is not given here.

Assays:
[1] = target: T1, 2-5A-dependent ribonuclease (Homo sapiens, UniProt Q05823); experiment: (§1) Activation of human RNase L expressed in Escherichia coli BL21 (DE3) cells assessed as RNA cleavage using Cy5-rC11-UU-C7-BHQ2 as substrate by FRET assay
T1 sequence (Q05823 whole entry): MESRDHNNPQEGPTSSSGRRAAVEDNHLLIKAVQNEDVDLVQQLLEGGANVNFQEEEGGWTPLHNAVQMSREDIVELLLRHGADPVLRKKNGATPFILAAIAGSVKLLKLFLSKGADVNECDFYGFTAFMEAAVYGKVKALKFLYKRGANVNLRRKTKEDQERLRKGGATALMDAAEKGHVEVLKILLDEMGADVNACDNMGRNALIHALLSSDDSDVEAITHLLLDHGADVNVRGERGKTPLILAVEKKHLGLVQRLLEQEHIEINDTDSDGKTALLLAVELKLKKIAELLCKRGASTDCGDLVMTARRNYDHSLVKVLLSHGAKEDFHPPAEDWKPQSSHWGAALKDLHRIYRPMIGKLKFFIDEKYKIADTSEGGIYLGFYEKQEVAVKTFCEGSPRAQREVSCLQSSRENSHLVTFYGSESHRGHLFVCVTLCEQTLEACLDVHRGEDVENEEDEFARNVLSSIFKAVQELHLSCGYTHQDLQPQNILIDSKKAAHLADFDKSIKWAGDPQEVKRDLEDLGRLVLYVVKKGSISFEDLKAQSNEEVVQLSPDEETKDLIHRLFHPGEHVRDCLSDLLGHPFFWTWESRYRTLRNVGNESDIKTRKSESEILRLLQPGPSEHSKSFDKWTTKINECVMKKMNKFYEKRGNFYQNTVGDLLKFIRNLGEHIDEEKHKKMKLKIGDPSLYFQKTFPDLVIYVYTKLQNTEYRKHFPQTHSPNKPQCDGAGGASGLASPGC

[2] = target: T2, 2-5A-dependent ribonuclease (Homo sapiens) (UniProt Q05823); experiment: as §1
T2 sequence (whole entry): T1 sequence (Q05823 whole entry)

Row | EC50 [1] | Activity [2] | SMILES
1 | > 1000 nM | – | Nc1ncnc2c1ncn2[C@@H]1O[C@H](COP(=O)(O)O[C@H]2[C@H](O)[C@@H](COCP(=O)(O)O[C@@H]3[C@H](O)[C@@H](COP(=O)(O)O[C@@H]4[C@H](O)[C@@H](COP(=O)(O)O)O[C@H]4n4cnc5c(N)ncnc54)O[C@H]3n3cnc4c(N)ncnc43)O[C@H]2n2cnc3c(N)ncnc32)[C@@H](O)[C@H]1O
2 | 15 nM | Active | Nc1ncnc2c1ncn2[C@@H]1O[C@H](COCP(=O)(O)O[C@@H]2[C@H](O)[C@@H](COP(=O)(O)O[C@@H]3[C@H](O)[C@@H](COP(=O)(O)O[C@@H]4[C@H](O)[C@@H](COP(=O)(O)O)O[C@H]4n4cnc5c(N)ncnc54)O[C@H]3n3cnc4c(N)ncnc43)O[C@H]2n2cnc3c(N)ncnc32)[C@@H](O)[C@H]1O
3 | > 1000 nM | – | Nc1ncnc2c1ncn2[C@@H]1O[C@H](COP(=O)(O)O[C@@H]2[C@H](O)[C@@H](COP(=O)(O)O[C@H]3[C@H](O)[C@@H](COCP(=O)(O)O[C@@H]4[C@H](O)[C@@H](COP(=O)(O)O)O[C@H]4n4cnc5c(N)ncnc54)O[C@H]3n3cnc4c(N)ncnc43)O[C@H]2n2cnc3c(N)ncnc32)[C@@H](O)[C@H]1O
4 | > 1000 nM | – | Nc1ncnc2c1ncn2[C@@H]1O[C@H](COP(=O)(O)O[C@@H]2[C@H](O)[C@@H](COP(=O)(O)CO[C@H]3[C@H](O)[C@@H](COP(=O)(O)O[C@@H]4[C@H](O)[C@@H](COP(=O)(O)O)O[C@H]4n4cnc5c(N)ncnc54)O[C@H]3n3cnc4c(N)ncnc43)O[C@H]2n2cnc3c(N)ncnc32)[C@@H](O)[C@H]1O
5 | 300 nM | Active | Nc1ncnc2c1ncn2[C@@H]1O[C@H](COP(=O)(O)O[C@@H]2[C@H](O)[C@@H](COP(=O)(O)O[C@@H]3[C@H](O)[C@@H](COP(=O)(O)CO[C@@H]4[C@@H](O)[C@@H](COP(=O)(O)O)O[C@H]4n4cnc5c(N)ncnc54)O[C@H]3n3cnc4c(N)ncnc43)O[C@H]2n2cnc3c(N)ncnc32)[C@@H](O)[C@H]1O
6 | > 1000 nM | – | Nc1ncnc2c1ncn2[C@@H]1O[C@H](COP(=O)(O)O[C@@H]2[C@H](O)[C@@H](COP(=O)(O)CO[C@@H]3[C@@H](O)[C@@H](COP(=O)(O)O[C@@H]4[C@H](O)[C@@H](COP(=O)(O)O)O[C@H]4n4cnc5c(N)ncnc54)O[C@H]3n3cnc4c(N)ncnc43)O[C@H]2n2cnc3c(N)ncnc32)[C@@H](O)[C@H]1O
7 | 200 nM | Active | Nc1ncnc2c1ncn2[C@@H]1O[C@H](COP(=O)(O)CO[C@@H]2[C@H](O)[C@@H](COP(=O)(O)O[C@@H]3[C@H](O)[C@@H](COP(=O)(O)O[C@@H]4[C@H](O)[C@@H](COP(=O)(O)O)O[C@H]4n4cnc5c(N)ncnc54)O[C@H]3n3cnc4c(N)ncnc43)O[C@H]2n2cnc3c(N)ncnc32)[C@@H](O)[C@H]1O
8 | 1000 nM | Active | Nc1ncnc2c1ncn2[C@@H]1O[C@H](COP(=O)(O)O[C@@H]2[C@@H](O)[C@@H](COCP(=O)(O)O[C@@H]3[C@H](O)[C@@H](COP(=O)(O)O[C@@H]4[C@H](O)[C@@H](COP(=O)(O)O)O[C@H]4n4cnc5c(N)ncnc54)O[C@H]3n3cnc4c(N)ncnc43)O[C@H]2n2cnc3c(N)ncnc32)[C@@H](O)[C@H]1O
9 | > 1000 nM | – | Nc1ncnc2c1ncn2[C@@H]1O[C@H](COP(=O)(O)O[C@@H]2[C@H](O)[C@@H](COP(=O)(O)CO[C@@H]3[C@H](O)[C@@H](COP(=O)(O)O[C@@H]4[C@H](O)[C@@H](COP(=O)(O)O)O[C@H]4n4cnc5c(N)ncnc54)O[C@H]3n3cnc4c(N)ncnc43)O[C@H]2n2cnc3c(N)ncnc32)[C@@H](O)[C@H]1O
10 | 1000 nM | Active | Nc1ncnc2c1ncn2[C@@H]1O[C@H](COP(=O)(O)CO[C@H]2[C@H](O)[C@@H](COP(=O)(O)O[C@@H]3[C@H](O)[C@@H](COP(=O)(O)O[C@@H]4[C@H](O)[C@@H](COP(=O)(O)O)O[C@H]4n4cnc5c(N)ncnc54)O[C@H]3n3cnc4c(N)ncnc43)O[C@H]2n2cnc3c(N)ncnc32)[C@@H](O)[C@H]1O
11 | 53 nM | – | Nc1ncnc2c1ncn2[C@@H]1O[C@H](COP(=O)(O)O[C@@H]2[C@H](O)[C@@H](COP(=O)(O)O[C@@H]3[C@H](O)[C@@H](COP(=O)(O)O[C@@H]4[C@H](O)[C@@H](COCP(=O)(O)O)O[C@H]4n4cnc5c(N)ncnc54)O[C@H]3n3cnc4c(N)ncnc43)O[C@H]2n2cnc3c(N)ncnc32)[C@@H](O)[C@H]1O
12 | 17 nM | – | Nc1ncnc2c1ncn2[C@@H]1O[C@H](COP(=O)(O)O[C@@H]2[C@H](O)[C@@H](COP(=O)(O)O[C@@H]3[C@H](O)[C@@H](COP(=O)(O)O[C@@H]4[C@H](O)[C@@H](COP(=O)(O)O)O[C@H]4n4cnc5c(N)ncnc54)O[C@H]3n3cnc4c(N)ncnc43)O[C@H]2n2cnc3c(N)ncnc32)[C@@H](O)[C@H]1O
13 | 1000 nM | Active | Nc1ncnc2c1ncn2[C@@H]1O[C@H](COP(=O)(O)O[C@@H]2[C@H](O)[C@@H](COP(=O)(O)O[C@@H]3[C@H](O)[C@@H](COP(=O)(O)O[C@H]4[C@H](O)[C@@H](COCP(=O)(O)O)O[C@H]4n4cnc5c(N)ncnc54)O[C@H]3n3cnc4c(N)ncnc43)O[C@H]2n2cnc3c(N)ncnc32)[C@@H](O)[C@H]1O
14 | 6.5 nM | Active | Nc1ncnc2c1ncn2[C@@H]1O[C@H](COCP(=O)(O)O[C@@H]2[C@H](O)[C@@H](COP(=O)(O)O[C@@H]3[C@H](O)[C@@H](COP(=O)(O)O[C@@H]4[C@H](O)[C@@H](COP(=O)(O)O)O[C@H]4n4cnc5c(N)ncnc54)O[C@H]3n3cnc4c(N)ncnc43)O[C@H]2n2cnc3c(N)ncnc32)[C@@H](O)[C@@H]1O
15 | 300 nM | inactive | Nc1ncnc2c1ncn2[C@@H]1O[C@H](COP(=O)(O)O[C@@H]2[C@H](O)[C@@H](COCP(=O)(O)O[C@@H]3[C@H](O)[C@@H](COP(=O)(O)O[C@@H]4[C@H](O)[C@@H](COP(=O)(O)O)O[C@H]4n4cnc5c(N)ncnc54)O[C@H]3n3cnc4c(N)ncnc43)O[C@H]2n2cnc3c(N)ncnc32)[C@@H](O)[C@H]1O
16 | 300 nM | Active | Nc1ncnc2c1ncn2[C@@H]1O[C@H](COP(=O)(O)O[C@@H]2[C@H](O)[C@@H](COP(=O)(O)O[C@@H]3[C@H](O)[C@@H](COP(=O)(O)O[C@@H]4[C@@H](O)[C@@H](COCP(=O)(O)O)O[C@H]4n4cnc5c(N)ncnc54)O[C@H]3n3cnc4c(N)ncnc43)O[C@H]2n2cnc3c(N)ncnc32)[C@@H](O)[C@H]1O
17 | > 1000 nM | – | Nc1ncnc2c1ncn2[C@@H]1O[C@H](COP(=O)(O)CO[C@@H]2[C@@H](O)[C@@H](COP(=O)(O)O[C@@H]3[C@H](O)[C@@H](COP(=O)(O)O[C@@H]4[C@H](O)[C@@H](COP(=O)(O)O)O[C@H]4n4cnc5c(N)ncnc54)O[C@H]3n3cnc4c(N)ncnc43)O[C@H]2n2cnc3c(N)ncnc32)[C@@H](O)[C@H]1O
18 | 4.2 nM | Active | Nc1ncnc2c1ncn2[C@@H]1O[C@H](COCP(=O)(O)O[C@@H]2[C@H](O)[C@@H](COP(=O)(O)O[C@@H]3[C@H](O)[C@@H](COP(=O)(O)O[C@@H]4[C@H](O)[C@@H](COP(=O)(O)O)O[C@H]4n4cnc5c(N)ncnc54)O[C@H]3n3cnc4c(N)ncnc43)O[C@H]2n2cnc3c(N)ncnc32)[C@H](O)[C@H]1O
19 | > 1000 nM | – | Nc1ncnc2c1ncn2[C@@H]1O[C@H](COP(=O)(O)O[C@@H]2[C@H](O)[C@@H](COP(=O)(O)O[C@@H]3[C@@H](O)[C@@H](COCP(=O)(O)O[C@@H]4[C@H](O)[C@@H](COP(=O)(O)O)O[C@H]4n4cnc5c(N)ncnc54)O[C@H]3n3cnc4c(N)ncnc43)O[C@H]2n2cnc3c(N)ncnc32)[C@@H](O)[C@H]1O
20 | > 1000 nM | inactive | Nc1ncnc2c1ncn2[C@@H]1O[C@H](COP(=O)(O)O[C@@H]2[C@H](O)[C@@H](COP(=O)(O)O[C@@H]3[C@H](O)[C@@H](COCP(=O)(O)O[C@@H]4[C@H](O)[C@@H](COP(=O)(O)O)O[C@H]4n4cnc5c(N)ncnc54)O[C@H]3n3cnc4c(N)ncnc43)O[C@H]2n2cnc3c(N)ncnc32)[C@@H](O)[C@H]1O
21 | > 1000 nM | – | Nc1ncnc2c1ncn2[C@@H]1O[C@H](COP(=O)(O)O[C@@H]2[C@H](O)[C@@H](COP(=O)(O)O[C@@H]3[C@H](O)[C@@H](COP(=O)(O)CO[C@H]4[C@H](O)[C@@H](COP(=O)(O)O)O[C@H]4n4cnc5c(N)ncnc54)O[C@H]3n3cnc4c(N)ncnc43)O[C@H]2n2cnc3c(N)ncnc32)[C@@H](O)[C@H]1O
